In patent publication US20130053430A1, “MODULATION OF CETP EXPRESSION” (Isis Pharmaceuticals, Inc., priority 2010, published 2013):
Strand notation (5' to 3'): a small letter for the sugar, then the base; units joined by * are phosphorothioate-linked, units joined directly phosphodiester-linked; [ ] holds rarer units or linkages, { } end groups; capitals alone tell only the bases. e = 2'-O-(2-methoxyethyl) (MOE); [5mC] = 5-methylcytosine; d = 2'-deoxy (DNA)

Columns and labels:
human CETP mRNA [1] = assay: Antisense inhibition of human CETP mRNA in SW872 liposarcoma cells (Example 1); type: cell-based; settings: 150 nM antisense oligonucleotide, lipofectin, ~24 hours, relative to untreated control cells
Experimental: Antisense oligonucleotides targeted to a CETP nucleic acid were tested for their effect on CETP mRNA transcript in vitro. Cultured SW872 liposarcoma cells at a density of 50,000 cells per well in a 24-well plate were transfected using lipofectin reagent with 150 nM antisense oligonucleotide. After approximately 24 hours, RNA was isolated from the cells and CETP mRNA levels were measured by quantitative real-time PCR. A human primer probe set (forward sequence […], designated herein as SEQ ID NO: 38; reverse sequence GGCTCACGCCTTTGCTGTT, designated herein as SEQ ID NO: 39; probe sequence […], designated herein as SEQ ID NO: 40) was used to quantitate CETP mRNA. CETP mRNA transcript levels were adjusted according to total RNA content, as measured by the house-keeping gene, GAPDH mRNA levels. GAPDH was measured using a primer probe set with the sequence as set forth in SEQ ID NOs: 10, 11, 13. Results are presented as percent inhibition of CETP, relative to untreated control cells.
The antisense oligonucleotides in Table 3 are 5-10-5 gapmers, where the gap segment comprises ten 2′-deoxynucleosides and each wing segment comprises five 2′-MOE nucleosides. Each nucleotide in the 5′ wing segment and each nucleotide in the 3′ wing segment has a 2′-MOE modification. The internucleoside linkages throughout each gapmer are phosphorothioate (P═S) linkages. All cytosine residues throughout each gapmer are 5-methylcytosines. ‘Target start site’ indicates the 5′-most nucleotide to which the antisense oligonucleotide is targeted. ‘Target stop site’ indicates the 3′-most nucleotide to which the antisense oligonucleotide is targeted. All the antisense oligonucleotides listed in Table 3 target human CETP mRNA, designated herein as SEQ ID NO: 1 (GENBANK Accession No. M30185.1).

human CETP mRNA [2] = assay: Antisense inhibition of human CETP mRNA in primary hepatocytes from huCETP transgenic mice (Example 4); type: cell-based, mouse; settings: cytofectin, ~24 hours
Experimental: Transgenic mice expressing human CETP, controlled by its natural flanking region, increase expression of this gene in response to hypercholesterolemia (Jiang, X. C. et al., J. Clin. Invest. 1992. 90: 1290-1295). These mice were utilized for the following studies. Antisense oligonucleotides targeted to a CETP nucleic acid and described in Example 1 were tested for their effect on CETP mRNA transcript in vitro. Cultured primary hepatocytes from huCETP transgenic mice, at a density of 17,500 cells per well in a 96-well plate, were transfected using cytofectin reagent with 100 nM or 200 nM antisense oligonucleotide. After approximately 24 hours, RNA was isolated from the cells and CETP mRNA levels were measured by quantitative real-time PCR. CETP mRNA transcript levels were adjusted according to total RNA content, as measured by the house-keeping gene, GAPDH mRNA levels. Results are presented in Table 6 as percent inhibition of CETP, relative to untreated control cells.

Substance | % inhibition (human CETP mRNA [1]) | Percent inhibition of human CETP mRNA (human CETP mRNA [2]; 100 nM) | Percent inhibition of human CETP mRNA (human CETP mRNA [2]; 200 nM)
ISIS 349492: 5-10-5 MOE gapmer GGCATCTTGAGGCAGTGGAC (antisense eG*eG*e[5mC]*eA*eT*d[5mC]*dT*dT*dG*dA*dG*dG*d[5mC]*dA*dG*eT*eG*eG*eA*e[5mC]) | 39% | 59% | 58%
ISIS 349493: 5-10-5 MOE gapmer TGTTTTGGCAGGAGATCTTG (eT*eG*eT*eT*eT*dT*dG*dG*d[5mC]*dA*dG*dG*dA*dG*dA*eT*e[5mC]*eT*eT*eG) | 67% | 51% | 62%
ISIS 349494: 5-10-5 MOE gapmer AGAATTGACCACGACTCCCT (eA*eG*eA*eA*eT*dT*dG*dA*d[5mC]*d[5mC]*dA*d[5mC]*dG*dA*d[5mC]*eT*e[5mC]*e[5mC]*e[5mC]*eT) | 41% | 85% | 57%
ISIS 349495: 5-10-5 MOE gapmer AGGAATTTCACCATCACTGA (eA*eG*eG*eA*eA*dT*dT*dT*d[5mC]*dA*d[5mC]*d[5mC]*dA*dT*d[5mC]*eA*e[5mC]*eT*eG*eA) | 58% | 61% | 74%
ISIS 349496: 5-10-5 MOE gapmer ACAGAATGTTGCTGGTCTGG (eA*e[5mC]*eA*eG*eA*dA*dT*dG*dT*dT*dG*d[5mC]*dT*dG*dG*eT*e[5mC]*eT*eG*eG) | 69% | 57% | 87%
ISIS 349497: 5-10-5 MOE gapmer CCTCTTCAAATGTGTAAGCT (e[5mC]*e[5mC]*eT*e[5mC]*eT*dT*d[5mC]*dA*dA*dA*dT*dG*dT*dG*dT*eA*eA*eG*e[5mC]*eT) | 78% | 71% | 79%
ISIS 349498: 5-10-5 MOE gapmer CTGGACGGTAGTCACGATAT (e[5mC]*eT*eG*eG*eA*d[5mC]*dG*dG*dT*dA*dG*dT*d[5mC]*dA*d[5mC]*eG*eA*eT*eA*eT) | 80% | 76% | 84%
ISIS 349499: 5-10-5 MOE gapmer CCAAGAGGCTTAAGAAGAGC (e[5mC]*e[5mC]*eA*eA*eG*dA*dG*dG*d[5mC]*dT*dT*dA*dA*dG*dA*eA*eG*eA*eG*e[5mC]) | 55% | 80% | 80%
ISIS 349500: 5-10-5 MOE gapmer ACAGTCTTTGGTGTAATCTG (eA*e[5mC]*eA*eG*eT*d[5mC]*dT*dT*dT*dG*dG*dT*dG*dT*dA*eA*eT*e[5mC]*eT*eG) | 72% | 41% | 77%
ISIS 349501: 5-10-5 MOE gapmer GCTGCTCTCAGTCAAGTTGG (eG*e[5mC]*eT*eG*e[5mC]*dT*d[5mC]*dT*d[5mC]*dA*dG*dT*d[5mC]*dA*dA*eG*eT*eT*eG*eG) | 67% | 54% | 45%
ISIS 349502: 5-10-5 MOE gapmer GAAGCTCTGGATGGACTCGG (eG*eA*eA*eG*e[5mC]*dT*d[5mC]*dT*dG*dG*dA*dT*dG*dG*dA*e[5mC]*eT*e[5mC]*eG*eG) | 43% | 49% | 61%
ISIS 349503: 5-10-5 MOE gapmer GCGGTGATCATTGACTGCAG (eG*e[5mC]*eG*eG*eT*dG*dA*dT*d[5mC]*dA*dT*dT*dG*dA*d[5mC]*eT*eG*e[5mC]*eA*eG) | 81% | 83% | 89%
ISIS 349504: 5-10-5 MOE gapmer TGACCTCAGGGATGCCCACA (eT*eG*eA*e[5mC]*e[5mC]*dT*d[5mC]*dA*dG*dG*dG*dA*dT*dG*d[5mC]*e[5mC]*e[5mC]*eA*e[5mC]*eA) | 45% | 78% | 92%
